Source: US7273886B2 (Genentech, Inc., priority 2003, dated 2007)
≈ marks a conversion by molar mass, not a printed value.

Key:
[1] = Plasma concentrations following IV bolus administration in rhesus monkey; assay type: in vivo; settings: IV bolus 1 mg/kg
Experimental: Dosing of Benzofuran Compounds in Rhesus Monkeys
IV Bolus: Inhibitors were formulated in a 1 mg/ml solution of 20–30% PEG 400/sterile water. The drug was administered as an IV bolus over 1 minute at 1 mg/kg. 1.0 ml blood samples were collected at each time point on 20 μl 8.5% K2EDTA. Blood samples for the IV dosed animals were be collected from a short, large bore catheter (needle <25G) placed in the saphenous or cephalic vein for all time points up to 3 hours after dosing. The catheters were then removed, the animals returned to their cages and latter samples collected by venipuncture. Venipuncture samples can be obtained from any superficial vein that can easily be compressed (e.g. cephalic, or saphenous but not from the femoral plexus). Sample time points were taken generally at the following times: pre-dose, 2, 5, 10, 20, 30, 40, 60, 90, 120, 150, 180 minutes and at 4, 6, 12, 24, and 48 hours.

Solubility in water = assay type: physicochemical; settings: aqueous buffer, thermodynamic from solid, amorphous solid
F. Xa = biological target: T1, F. Xa (Homo sapiens, UniProt P00742); assay: Factor Xa assay (Ki); assay type: biochemical
T1 construct: This complex converts factor X to Xa; purchased Hematologic Technologies
Experimental: (§1) Factor Xa, Thrombin, and Plasma Kallikrein Assays
(§2) These procedures can be used to determine the constant of inhibition (Ki) for a sample compound of the invention.
(§3) • Assay Buffer: 100 mM Hepes pH 7.8, 140 mM NaCl, 0.1% PEG-8000, 0.02% Tween-80 • Coagulation human Factor Xa, Thrombin, or Plasma Kallikrein (Hematologic Technologies) • Factor: Dilute to 0.45 μg/mL (9.8 nM) in assay buffer. • Substrate: S-2222, S2366 or S2302—(See below—Chromogenix Inc,) Reconstitute at 5 mM in H2O. Dilute to 1.5 mM in assay buffer prior to use. • Samples: Dilute samples to 3% DMSO in assay buffer. Procedure: • 1. Add 50 μL sample to each well. • 2. Add 50 μL appropriately diluted coagulation factor to each well. • 3. Incubate for 5 minutes at room temperature with gentle agitation. • 4. Add 50 μL appropriately diluted substrate to each well. • 5. Agitate plate for 20–25 sec. • 6. Monitor absorbance at 405 nm every 10 sec for a total of 5 minutes at room temperature. • 7. Calculate Vmax over 10 points. Assay—Enzyme, Substrate and Final Concentrations

HGFA = biological target: T2, HGFA (Homo sapiens, UniProt Q04756); assay: HGFA inhibition (Ki); assay type: biochemical
T2 sequence (Q04756 373-655): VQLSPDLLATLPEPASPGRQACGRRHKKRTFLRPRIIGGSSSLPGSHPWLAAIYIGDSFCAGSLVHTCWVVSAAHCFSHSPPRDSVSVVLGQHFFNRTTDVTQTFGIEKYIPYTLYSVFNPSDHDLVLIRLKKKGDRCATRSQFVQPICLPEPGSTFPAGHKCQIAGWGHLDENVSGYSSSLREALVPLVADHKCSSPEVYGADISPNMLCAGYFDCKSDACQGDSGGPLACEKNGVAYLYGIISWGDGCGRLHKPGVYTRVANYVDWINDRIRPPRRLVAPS

Acetylcholinesterase = Acetylcholinesterase (Homo sapiens, UniProt P22303); assay: Acetylcholinesterase inhibition (Ki); assay type: biochemical
APC [2] = biological target: APC (Homo sapiens, UniProt P04070); assay: APC inhibition (Ki); assay type: biochemical; settings: APC
APC [3] = assay: APC inhibition (Ki); assay type: biochemical; settings: APC relative to TFVIIa
Trypsin = Trypsin inhibition (Ki); assay type: biochemical
Thrombin = biological target: T3, Thrombin (Homo sapiens, UniProt P00734); assay: Thrombin assay (Ki); assay type: biochemical
T3 construct: rapidly converts prothrombin to thrombin; purchased Hematologic Technologies
Experimental: as §1, §2, §3

TFVIIa = biological target: T4, TFVIIa (Homo sapiens, UniProt P08709); assay: Tissue Factor/Factor VIIa antagonist assay (Ki); assay type: biochemical
T4 construct: recombinant human factor VIIa; NB #25942–16
Experimental: Tissue Factor/Factor VIIa Antagonist Assay
This procedure can be used to determine the constant of inhibition (Ki) for a sample compound of the invention.
• Assay Buffer: 100 mM Hepes pH 7.8, 140 mM NaCl, 0.1% PEG-8000, 0.02% Tween-80, 5 mM CaCl2 Coagulation • Factor: recombinant human factor VIIa (NB #25942–16) • Cofactor: soluble Tissue Factor (1-219) • Substrate: Chromozym-tPA (Boehringer Mannheim, Cat. #1093 037) Reconstitute at 20 mM in H2O. Dilute to 4 mM in assay buffer with CaCl2 prior to use. • Samples: Dilute samples to 3% DMSO in assay buffer (lacking CaCl2). Procedure: • 1. Prepare a solution of 2 μg/mL (90 nM) tissue factor and 1.5 μg/mL (30 nM) factor VIIa in assay buffer with CaCl2. • 2. Incubate for 15 minutes at room temperature. • 3. Add 50 μL sample to each well. • 4. Add 50 μL tissue factor/factor VIIa solution to each well. • 5. Incubate for 15 minutes at room temperature with gentle agitation. • 6. Add 50 μL substrate to each well. • 7. Agitate plate for 20–25 sec. • 8. Monitor absorbance at 405 nm every 10 sec for a total of 5 minutes at room temperature. • 9. Calculate Vmax over 10 points.

Plasma Kallikrein = biological target: T5, Plasma Kallikrein (Homo sapiens, UniProt P03952); assay: Plasma Kallikrein assay (Ki); assay type: biochemical
T5 construct: human Factor Xa, Thrombin, or Plasma Kallikrein (Hematologic Technologies); purchased Hematologic Technologies
Experimental: as §1, §2, §3

tPA = tPA (Homo sapiens, UniProt P00750); assay: tPA inhibition (Ki); assay type: biochemical
XIA [4] = biological target: XIA (Homo sapiens, UniProt P03951); assay: XIA inhibition (Ki); assay type: biochemical; settings: XIA
XIA [5] = assay: XIA inhibition (Ki); assay type: biochemical; settings: XIA relative to TFVIIa
Plasmin = Plasmin (Homo sapiens, UniProt P00747); assay: Plasmin inhibition (Ki); assay type: biochemical
Complement CS1 = biological target: T6, Complement CS1 (Homo sapiens, UniProt P09871); assay: Complement CS1 inhibition (Ki); assay type: biochemical
T6 sequence (P09871 16-688): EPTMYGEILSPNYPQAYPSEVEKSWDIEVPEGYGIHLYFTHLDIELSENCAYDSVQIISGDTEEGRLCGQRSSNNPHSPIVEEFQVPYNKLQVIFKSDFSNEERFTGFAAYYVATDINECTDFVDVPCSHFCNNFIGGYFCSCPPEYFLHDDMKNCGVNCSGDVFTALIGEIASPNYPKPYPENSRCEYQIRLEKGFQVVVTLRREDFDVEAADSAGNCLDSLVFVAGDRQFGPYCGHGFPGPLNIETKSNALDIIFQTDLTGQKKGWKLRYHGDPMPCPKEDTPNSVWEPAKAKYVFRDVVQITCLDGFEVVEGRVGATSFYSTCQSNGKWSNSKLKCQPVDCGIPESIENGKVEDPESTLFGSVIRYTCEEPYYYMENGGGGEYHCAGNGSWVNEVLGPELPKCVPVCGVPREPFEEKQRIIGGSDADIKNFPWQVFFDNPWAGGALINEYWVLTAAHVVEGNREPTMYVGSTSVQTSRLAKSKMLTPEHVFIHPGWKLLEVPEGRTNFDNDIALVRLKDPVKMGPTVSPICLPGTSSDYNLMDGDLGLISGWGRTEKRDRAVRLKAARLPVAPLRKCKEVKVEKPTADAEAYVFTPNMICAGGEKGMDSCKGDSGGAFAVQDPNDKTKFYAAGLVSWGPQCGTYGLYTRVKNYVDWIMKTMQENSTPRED

XIIA = biological target: T7, XIIA (Homo sapiens, UniProt P00748); assay: XIIA inhibition (Ki); assay type: biochemical
T7 sequence (P00748 373-615 limits assumed): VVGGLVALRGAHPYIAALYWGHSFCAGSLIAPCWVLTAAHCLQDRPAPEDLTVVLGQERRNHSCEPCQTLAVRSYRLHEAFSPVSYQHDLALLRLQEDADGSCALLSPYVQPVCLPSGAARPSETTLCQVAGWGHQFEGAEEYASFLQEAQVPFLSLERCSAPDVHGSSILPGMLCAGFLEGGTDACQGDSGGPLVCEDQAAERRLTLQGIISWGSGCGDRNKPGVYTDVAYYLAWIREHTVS

Chymotrypsin = Chymotrypsin inhibition (Ki); assay type: biochemical
Urokinase = Urokinase (Homo sapiens, UniProt P00749); assay: Urokinase inhibition (Ki); assay type: biochemical

T5 sequence (P03952 20-390 limits assumed): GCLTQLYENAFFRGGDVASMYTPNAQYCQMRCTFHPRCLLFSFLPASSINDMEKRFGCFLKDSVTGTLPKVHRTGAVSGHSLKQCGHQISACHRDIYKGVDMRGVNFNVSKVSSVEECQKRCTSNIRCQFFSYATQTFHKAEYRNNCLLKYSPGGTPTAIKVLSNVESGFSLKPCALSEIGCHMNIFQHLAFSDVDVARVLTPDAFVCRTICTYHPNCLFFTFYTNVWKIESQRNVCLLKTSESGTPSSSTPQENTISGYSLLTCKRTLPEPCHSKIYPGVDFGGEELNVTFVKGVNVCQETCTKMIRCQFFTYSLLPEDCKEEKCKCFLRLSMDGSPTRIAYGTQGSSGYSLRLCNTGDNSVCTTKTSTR
T5 sequence (P03952 391-638 limits assumed): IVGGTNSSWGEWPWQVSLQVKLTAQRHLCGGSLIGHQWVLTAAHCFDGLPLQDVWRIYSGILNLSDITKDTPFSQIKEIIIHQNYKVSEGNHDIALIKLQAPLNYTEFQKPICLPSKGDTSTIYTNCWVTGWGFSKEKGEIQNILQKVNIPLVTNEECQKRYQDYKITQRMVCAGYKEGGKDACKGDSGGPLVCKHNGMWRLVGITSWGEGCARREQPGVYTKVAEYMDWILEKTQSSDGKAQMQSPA
T4 sequence (P08709 61-212 limits assumed): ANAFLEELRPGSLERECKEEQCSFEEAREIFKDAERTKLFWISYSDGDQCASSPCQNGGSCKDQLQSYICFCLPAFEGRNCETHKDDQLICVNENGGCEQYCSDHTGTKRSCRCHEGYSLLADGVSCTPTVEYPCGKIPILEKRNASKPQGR
T4 sequence (P08709 213-466 limits assumed): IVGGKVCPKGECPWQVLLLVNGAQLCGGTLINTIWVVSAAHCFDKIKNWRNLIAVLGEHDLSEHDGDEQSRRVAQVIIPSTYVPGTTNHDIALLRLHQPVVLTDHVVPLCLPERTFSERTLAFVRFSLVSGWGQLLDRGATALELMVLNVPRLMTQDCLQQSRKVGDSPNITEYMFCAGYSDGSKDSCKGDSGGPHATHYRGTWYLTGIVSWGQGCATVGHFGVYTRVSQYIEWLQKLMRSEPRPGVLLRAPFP
T4 sequence (P13726 33-251 partner limits assumed): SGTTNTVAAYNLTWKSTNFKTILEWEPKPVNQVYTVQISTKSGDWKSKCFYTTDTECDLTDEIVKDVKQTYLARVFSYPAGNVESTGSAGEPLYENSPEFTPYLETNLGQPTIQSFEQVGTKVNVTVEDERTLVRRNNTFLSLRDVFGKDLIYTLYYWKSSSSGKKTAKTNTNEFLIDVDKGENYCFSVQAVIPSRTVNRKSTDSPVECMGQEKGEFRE
Sequence of tPA (P00750 36-562, species assumed): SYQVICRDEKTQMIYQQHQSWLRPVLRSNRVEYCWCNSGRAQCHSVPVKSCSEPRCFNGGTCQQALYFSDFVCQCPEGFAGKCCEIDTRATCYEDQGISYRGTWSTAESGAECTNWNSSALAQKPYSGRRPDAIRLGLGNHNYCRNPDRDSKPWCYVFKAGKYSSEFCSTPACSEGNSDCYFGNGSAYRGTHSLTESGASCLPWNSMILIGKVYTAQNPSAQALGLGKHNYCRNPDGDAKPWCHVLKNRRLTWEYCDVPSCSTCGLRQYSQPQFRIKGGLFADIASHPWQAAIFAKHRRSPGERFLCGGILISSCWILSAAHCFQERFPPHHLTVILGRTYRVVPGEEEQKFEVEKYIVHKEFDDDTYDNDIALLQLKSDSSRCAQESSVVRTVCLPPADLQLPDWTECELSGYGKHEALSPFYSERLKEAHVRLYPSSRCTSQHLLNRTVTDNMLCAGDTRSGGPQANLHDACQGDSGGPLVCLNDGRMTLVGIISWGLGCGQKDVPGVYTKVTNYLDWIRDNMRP
Sequence of Plasmin (P00747 581-810 limits assumed, species assumed): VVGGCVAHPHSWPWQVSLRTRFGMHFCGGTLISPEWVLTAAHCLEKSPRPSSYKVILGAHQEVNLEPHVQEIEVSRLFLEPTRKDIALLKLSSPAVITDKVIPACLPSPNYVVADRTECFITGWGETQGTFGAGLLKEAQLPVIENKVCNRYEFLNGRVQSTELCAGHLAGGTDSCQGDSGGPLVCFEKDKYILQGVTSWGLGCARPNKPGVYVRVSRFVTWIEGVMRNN
Sequence of Plasmin (P00747 97-580 limits assumed, species assumed): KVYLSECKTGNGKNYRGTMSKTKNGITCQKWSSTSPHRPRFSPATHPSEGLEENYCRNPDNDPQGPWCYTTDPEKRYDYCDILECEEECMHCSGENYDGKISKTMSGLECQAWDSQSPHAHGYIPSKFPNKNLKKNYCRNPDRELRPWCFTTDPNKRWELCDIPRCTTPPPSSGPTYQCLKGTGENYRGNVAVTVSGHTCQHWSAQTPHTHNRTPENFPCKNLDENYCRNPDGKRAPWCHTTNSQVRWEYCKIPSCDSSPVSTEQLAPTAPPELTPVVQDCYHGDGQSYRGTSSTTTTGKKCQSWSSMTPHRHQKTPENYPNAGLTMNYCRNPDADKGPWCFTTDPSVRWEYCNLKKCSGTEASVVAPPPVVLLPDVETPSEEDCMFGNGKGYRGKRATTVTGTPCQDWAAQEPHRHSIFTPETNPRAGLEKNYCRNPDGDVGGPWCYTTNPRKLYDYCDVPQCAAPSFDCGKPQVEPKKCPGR
Sequence of Acetylcholinesterase (P22303 32-614, species assumed): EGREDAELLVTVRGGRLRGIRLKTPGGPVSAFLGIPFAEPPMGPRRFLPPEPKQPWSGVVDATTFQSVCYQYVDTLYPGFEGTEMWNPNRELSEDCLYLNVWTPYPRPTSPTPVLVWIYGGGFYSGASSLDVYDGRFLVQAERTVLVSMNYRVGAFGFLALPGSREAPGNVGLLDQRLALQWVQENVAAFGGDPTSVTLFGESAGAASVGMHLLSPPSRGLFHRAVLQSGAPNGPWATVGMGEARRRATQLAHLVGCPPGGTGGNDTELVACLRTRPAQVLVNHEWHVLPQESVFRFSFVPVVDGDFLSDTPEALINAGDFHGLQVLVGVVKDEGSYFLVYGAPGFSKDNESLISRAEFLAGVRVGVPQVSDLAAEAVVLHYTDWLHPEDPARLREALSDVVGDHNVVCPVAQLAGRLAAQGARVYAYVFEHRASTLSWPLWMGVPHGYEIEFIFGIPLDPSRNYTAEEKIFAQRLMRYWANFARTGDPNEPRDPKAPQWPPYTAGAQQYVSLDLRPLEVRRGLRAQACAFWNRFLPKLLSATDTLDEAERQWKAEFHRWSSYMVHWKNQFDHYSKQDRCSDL
T1 sequence (P00742 41-179 limits assumed): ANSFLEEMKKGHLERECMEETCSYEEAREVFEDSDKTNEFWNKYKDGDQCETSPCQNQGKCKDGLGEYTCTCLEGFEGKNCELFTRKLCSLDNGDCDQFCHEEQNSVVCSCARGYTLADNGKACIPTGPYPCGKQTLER
T1 sequence (P00742 235-488 limits assumed): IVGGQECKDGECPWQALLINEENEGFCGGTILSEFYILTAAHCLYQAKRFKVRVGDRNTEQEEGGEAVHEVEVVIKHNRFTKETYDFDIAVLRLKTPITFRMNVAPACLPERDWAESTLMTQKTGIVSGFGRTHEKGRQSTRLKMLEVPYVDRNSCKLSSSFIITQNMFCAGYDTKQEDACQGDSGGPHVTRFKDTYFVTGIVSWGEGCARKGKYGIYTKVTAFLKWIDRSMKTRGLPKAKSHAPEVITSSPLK
Sequence of APC (Homo sapiens, UniProt P04070) (P04070 212-461 limits assumed): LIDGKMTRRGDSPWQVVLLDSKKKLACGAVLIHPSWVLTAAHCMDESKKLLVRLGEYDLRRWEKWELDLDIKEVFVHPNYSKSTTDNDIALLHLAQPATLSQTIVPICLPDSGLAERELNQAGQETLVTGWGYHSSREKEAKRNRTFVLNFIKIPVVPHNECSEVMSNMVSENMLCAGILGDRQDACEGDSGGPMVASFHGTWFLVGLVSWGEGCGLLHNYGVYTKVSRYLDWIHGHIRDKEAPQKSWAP
Sequence of XIA (Homo sapiens, UniProt P03951) (P03951 388-625 limits assumed): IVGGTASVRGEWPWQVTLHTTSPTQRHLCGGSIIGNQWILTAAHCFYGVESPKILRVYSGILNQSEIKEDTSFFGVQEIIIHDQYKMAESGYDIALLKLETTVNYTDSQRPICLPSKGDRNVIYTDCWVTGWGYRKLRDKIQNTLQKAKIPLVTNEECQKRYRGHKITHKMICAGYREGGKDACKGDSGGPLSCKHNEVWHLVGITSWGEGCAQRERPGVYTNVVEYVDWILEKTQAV

**Q.** What does the source list for `CCOc1cc(OCC)cc(C(Nc2ccc(C(=N)N)cc2)C(=O)NS(=O)(=O)CC)c1` (stereo not shown)?
**A.** clearance [1]: 8.6 mL/min/kg body weight; half-life ([1]; plasma): 1.25 h

**Q.** Which results are given for `CCc1cc(C(Nc2ccc(/C(N)=N\OCc3ccc(OC)cc3)cc2)C(=O)NS(N)(=O)=O)cc2c(C)coc12` (stereo not shown) [Compound 26]?
**A.** solubility (Solubility in water; pH 2): 115 µM (≈ 65 µg/mL); solubility (Solubility in water; pH 6.5): 98 µM (≈ 55.4 µg/mL)

**Q.** What does the source list for `CCc1cc(C(Nc2ccc(C(=N)N)cc2)C(=O)NS(N)(=O)=O)cc2c(C)coc12` (stereo not shown) [Compound 8]?
**A.** Ki (F. Xa; F. Xa): > 7000 nM; Selectivity (F. Xa; F. Xa relative to TFVIIa): >1750 X; Ki (HGFA; HGFA): 6400 nM; Selectivity (HGFA; HGFA relative to TFVIIa): 1600 X; Ki (Acetylcholinesterase): > 6800 nM; Selectivity (Acetylcholinesterase; Acetylcholinesterase relative to TFVIIa): 1700 X; Ki (APC [2]): 1440 nM; Selectivity (APC [3]): 360 X; Ki (Trypsin; Trypsin): 2100 nM; Selectivity (Trypsin; Trypsin relative to TFVIIa): 525 X; Ki (Thrombin; Thrombin): 830 nM; Selectivity (Thrombin; Thrombin relative to TFVIIa): 207 X; Ki (TFVIIa; TFVIIa): 4 nM; Selectivity (TFVIIa; TFVIIa (reference)): 1 X; Ki (Plasma Kallikrein; Plasma Kallikrein): 82 nM; Selectivity (Plasma Kallikrein; Plasma Kallikrein relative to TFVIIa): 20 X; Ki (tPA; tPA): > 7800 nM; Selectivity (tPA; tPA relative to TFVIIa): >1950 X; Ki (XIA [4]): > 8000 nM; Selectivity (XIA [5]): >2000 X; Ki (Plasmin; Plasmin): 880 nM; Selectivity (Plasmin; Plasmin relative to TFVIIa): 220 X; Ki (Complement CS1; Complement CS1): > 6500 nM; Selectivity (Complement CS1; Complement CS1 relative to TFVIIa): >1625 X; Ki (XIIA; XIIA): > 8700 nM; Selectivity (XIIA; XIIA relative to TFVIIa): >2175 X; Ki (Chymotrypsin; Chymotrypsin): > 6900 nM; Selectivity (Chymotrypsin; Chymotrypsin relative to TFVIIa): >1725 X; Ki (Urokinase; Urokinase): > 6800 nM; Selectivity (Urokinase; Urokinase relative to TFVIIa): >1700 X
